Legend:
Type in all cases: biochemical
Hna [1] = target: T1, Hna (Sinorhizobium meliloti, UniProt Q92XN4); experiment: ssDNA cleavage time courses by capillary electrophoresis, […] ATP; conditions: 10 mM MgCl2; pH 7.5; 37 °C; nuclease read-out, ATP binds helicase domain
T1 construct: gene SMa2245; full length, 845 residues; recombinant E. coli (codon-optimised); N-terminal 6xHis-MBP-TEV tags cleaved with TEV; monomer, ATP-stabilised homodimer

Hna [2] = target: T1, Hna; experiment: malachite green phosphate release assay; conditions: 20 µM ATP; 10 nM ssDNA; 10 mM MgCl2; pH 7.5; 37 °C
Hna [3] = target: T2, Hna (Sinorhizobium meliloti, UniProt Q92XN4, P712A/D713A/E727A); experiment: malachite green phosphate release assay; conditions: ssDNA present; Mg2+; pH 7.5; 37 °C
T2 construct: gene SMa2245; full length, 845 residues; recombinant E. coli (codon-optimised); N-terminal 6xHis-MBP-TEV tags cleaved with TEV; monomer, ATP-stabilised homodimer
T2 sequence (Q92XN4 entry or part of it P712A/D713A/E727A): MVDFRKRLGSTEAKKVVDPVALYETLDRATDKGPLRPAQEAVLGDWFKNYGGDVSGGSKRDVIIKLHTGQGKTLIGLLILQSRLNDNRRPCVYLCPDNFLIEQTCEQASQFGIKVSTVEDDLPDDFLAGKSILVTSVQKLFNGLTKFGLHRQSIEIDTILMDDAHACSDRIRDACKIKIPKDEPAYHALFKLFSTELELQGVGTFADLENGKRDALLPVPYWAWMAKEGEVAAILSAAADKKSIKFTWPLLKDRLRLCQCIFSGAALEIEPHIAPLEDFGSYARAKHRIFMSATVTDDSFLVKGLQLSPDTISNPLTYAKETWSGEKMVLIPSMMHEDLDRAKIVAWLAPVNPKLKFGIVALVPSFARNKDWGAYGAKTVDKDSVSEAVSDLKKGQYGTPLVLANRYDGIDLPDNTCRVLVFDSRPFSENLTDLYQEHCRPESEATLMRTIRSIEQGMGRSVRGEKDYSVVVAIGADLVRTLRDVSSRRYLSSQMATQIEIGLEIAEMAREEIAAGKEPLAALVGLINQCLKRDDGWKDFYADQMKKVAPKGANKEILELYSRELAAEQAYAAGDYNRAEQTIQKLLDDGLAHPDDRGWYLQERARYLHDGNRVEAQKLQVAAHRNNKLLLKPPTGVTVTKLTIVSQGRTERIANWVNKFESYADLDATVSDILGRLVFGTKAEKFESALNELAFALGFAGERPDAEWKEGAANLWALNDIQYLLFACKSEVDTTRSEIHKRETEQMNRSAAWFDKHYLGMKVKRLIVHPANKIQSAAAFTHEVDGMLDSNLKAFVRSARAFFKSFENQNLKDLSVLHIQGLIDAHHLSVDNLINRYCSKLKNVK

T1 sequence (Q92XN4 entry or part of it): as the sequence (Q92XN4 entry or part of it P712A/D713A/E727A) above, with A712P, A713D, A727E counted along it

Structure (SMILES): Nc1ncnc2c1ncn2[C@@H]1O[C@H](COP(=O)(O)OP(=O)(O)OP(=O)(O)O)[C@@H](O)[C@H]1O [ATP]
- inhibition of ssDNA cleavage (Hna [1]): significant reduction in ssDNA cleavage across all concentrations of ATP tested
- malachite green phosphate release assay (Hna [2]): Hna possesses minimal innate ATPase activity that is significantly enhanced by the inclusion of ssDNA
- ATPase activity (significant increase) (Hna [3]): significant increase in ATP hydrolysis by PDE Hna
